This is an account of results in ChEMBL document CHEMBL3045104, “Synthesis and antibacterial activity of 4-benzoyl-1-(4-carboxy-phenyl)-5-phenyl-1H-pyrazole-3-carboxylic acid and derivatives” (2009).

The structures appear in SMILES notation. In brackets after ≈: the same amount, converted by molar mass. Activity calls are given as the source filed them. The rule behind the calls is not given here.

By MIC is commonly meant the least concentration at which growth counts as inhibited.

What all share (type): functional
In one assay the test system is Klebsiella pneumoniae. Kind of assay: Antimicrobial activity against Klebsiella pneumoniae A137 after overnight incubation by microdilution broth susceptibility assay. Background: In broth dilution the organism is exposed to a series of concentrations in liquid medium.
The next assay deals with Escherichia coli. Briefly: Antimicrobial activity against Escherichia coli B3704 after overnight incubation by microdilution broth susceptibility assay.
Another assay relates to Staphylococcus aureus. Kind of assay: Antimicrobial activity against Staphylococcus aureus ATCC 29213 after overnight incubation by microdilution broth susceptibility assay.
Another assay relates to Streptococcus pyogenes. Briefly: Antimicrobial activity against Streptococcus pyogenes ATCC 176 after overnight incubation by microdilution broth susceptibility assay.
A further assay deals with Pseudomonas aeruginosa. Briefly: Antimicrobial activity against Pseudomonas aeruginosa ATCC 9027 after overnight incubation by microdilution broth susceptibility assay.
The test system of the next assay is Salmonella enteritidis. Kind of assay: Antimicrobial activity against Salmonella enterica subsp. enterica serovar Enteritidis ATCC 1376 after overnight incubation by microdilution broth susceptibility assay.
For the next assay, the system named is Proteus vulgaris. Briefly: Antimicrobial activity against Proteus vulgaris Kuk. 1329 after overnight incubation by microdilution broth susceptibility assay.
For another assay, the system named is Bacillus subtilis. Briefly: Antimicrobial activity against Bacillus subtilis ATCC 6633 after overnight incubation by microdilution broth susceptibility assay.
In the next assay the test system is Enterococcus faecalis. Briefly: Antimicrobial activity against Enterococcus faecalis ATCC 29122 after overnight incubation by microdilution broth susceptibility assay.
Another assay concerns Xanthomonas campestris. Kind of assay: Antimicrobial activity against Xanthomonas campestris A235 after overnight incubation by microdilution broth susceptibility assay.

`CNC(=O)NC(=O)c1ccc(-n2nc(C(=O)NC(=O)NC)c(C(=O)c3ccccc3)c2-c2ccccc2)cc1`: the minimum inhibitory concentration (MIC) was found to be 122 µM (≈ 64 µg/mL) in the assay with Klebsiella pneumoniae, 122 µM (≈ 64 µg/mL) against Escherichia coli and 244 µM (≈ 128 µg/mL) with Bacillus subtilis. The MIC result in the assay with Staphylococcus aureus, in the assay on Streptococcus pyogenes, in the assay on Pseudomonas aeruginosa, with Salmonella enteritidis, in the assay with Proteus vulgaris and in the assay on Enterococcus faecalis was “inactive” each time. Besides, the MIC entry in the assay with Xanthomonas campestris is “inactive”.
`NC(=O)c1ccc(-n2nc(C(N)=O)c(C(=O)c3ccccc3)c2-c2ccccc2)cc1`: the MIC in the assay with Klebsiella pneumoniae and in the assay with Escherichia coli was 156 µM (≈ 64 µg/mL) in each case. The MIC result in the assay on Staphylococcus aureus, in the assay with Streptococcus pyogenes, with Pseudomonas aeruginosa, with Salmonella enteritidis, in the assay with Proteus vulgaris and in the assay with Bacillus subtilis was “inactive” in each case. The MIC result in the assay on Enterococcus faecalis and in the assay with Xanthomonas campestris was “inactive” in each case.
With `CCNC(=O)c1ccc(-n2nc(C(=O)NCC)c(C(=O)c3ccccc3)c2-c2ccccc2)cc1`, the MIC against Klebsiella pneumoniae came to 137 µM (≈ 63.9 µg/mL); against Escherichia coli it was 137 µM (≈ 63.9 µg/mL); in the assay with Bacillus subtilis, 274 µM (≈ 128 µg/mL); against Xanthomonas campestris it was 274 µM (≈ 128 µg/mL). Moreover, the MIC result in the assay on Staphylococcus aureus, in the assay on Streptococcus pyogenes, in the assay with Pseudomonas aeruginosa, in the assay with Salmonella enteritidis, in the assay on Proteus vulgaris and with Enterococcus faecalis was “inactive” throughout.
`N#Cc1ccc(-n2nc(C#N)c(C(=O)c3ccccc3)c2-c2ccccc2)cc1`: the MIC against Klebsiella pneumoniae turned out to be 171 µM (≈ 64 µg/mL); in the assay on Escherichia coli, 171 µM (≈ 64 µg/mL); with Bacillus subtilis, 171 µM (≈ 64 µg/mL); against Xanthomonas campestris, 342 µM (≈ 128 µg/mL). For the same compound, the MIC entry in the assay on Staphylococcus aureus, in the assay with Streptococcus pyogenes, in the assay on Pseudomonas aeruginosa, in the assay with Salmonella enteritidis, in the assay on Proteus vulgaris and in the assay with Enterococcus faecalis was “inactive” throughout.
For the compound `O=C(O)c1ccc(-n2nc3c(=O)n(-c4ccccc4)nc(-c4ccccc4)c3c2-c2ccccc2)cc1`, the MIC came out at 132 µM (≈ 64 µg/mL) against Klebsiella pneumoniae; 132 µM (≈ 64 µg/mL) against Escherichia coli; 132 µM (≈ 64 µg/mL) against Pseudomonas aeruginosa; 264 µM (≈ 128 µg/mL) with Bacillus subtilis; 264 µM (≈ 128 µg/mL) in the assay on Xanthomonas campestris. Moreover, the MIC result in the assay on Staphylococcus aureus, with Streptococcus pyogenes, in the assay with Salmonella enteritidis, in the assay with Proteus vulgaris and in the assay with Enterococcus faecalis was “inactive” each time.
Regarding `O=C(NC(=O)c1ccc(-n2nc(C(=O)NC(=O)Nc3ccccc3)c(C(=O)c3ccccc3)c2-c2ccccc2)cc1)Nc1ccccc1`, the MIC turned out to be 99 µM (≈ 64.2 µg/mL) in the assay with Klebsiella pneumoniae, 99 µM (≈ 64.2 µg/mL) with Escherichia coli and 197 µM (≈ 128 µg/mL) in the assay on Bacillus subtilis. Moreover, the MIC result in the assay with Staphylococcus aureus, with Streptococcus pyogenes, with Pseudomonas aeruginosa, with Salmonella enteritidis, with Proteus vulgaris and in the assay with Enterococcus faecalis was “inactive” in each case. In addition, the MIC entry in the assay with Xanthomonas campestris is “inactive”.
With `O=C(O)c1ccc(-n2nc3c(=O)n(-c4ccc(C(=O)O)cc4)nc(-c4ccccc4)c3c2-c2ccccc2)cc1`, the minimum inhibitory concentration (MIC) with Klebsiella pneumoniae was 121 µM (≈ 64 µg/mL); with Escherichia coli, 121 µM (≈ 64 µg/mL); against Pseudomonas aeruginosa, 242 µM (≈ 128 µg/mL); in the assay with Bacillus subtilis, 242 µM (≈ 128 µg/mL). The MIC entry in the assay with Staphylococcus aureus, in the assay on Streptococcus pyogenes, in the assay with Salmonella enteritidis, with Proteus vulgaris, in the assay on Enterococcus faecalis and in the assay on Xanthomonas campestris was “inactive” in each case.
Turning to `O=C(N[C@H](CO)[C@H](O)c1ccc([N+](=O)[O-])cc1)C(Cl)Cl` [CHLORAMPHENICOL], the MIC was found to be 37 µM (≈ 12 µg/mL) against Klebsiella pneumoniae; 19 µM (≈ 6.14 µg/mL) with Escherichia coli; 19 µM (≈ 6.14 µg/mL) against Staphylococcus aureus; 37 µM (≈ 12 µg/mL) against Streptococcus pyogenes; 74 µM (≈ 23.9 µg/mL) against Pseudomonas aeruginosa; 74 µM (≈ 23.9 µg/mL) in the assay on Salmonella enteritidis. Also, the MIC stood at 74 µM (≈ 23.9 µg/mL) in the assay on Proteus vulgaris, 74 µM (≈ 23.9 µg/mL) in the assay with Bacillus subtilis, 37 µM (≈ 12 µg/mL) with Enterococcus faecalis and 37 µM (≈ 12 µg/mL) with Xanthomonas campestris.
Consider `O=C(O)c1ccc(N/N=C(\c2ccccc2)c2c(-c3ccccc3)nn(-c3ccc(C(=O)O)cc3)c(=O)c2O)cc1`, for which the MIC in the assay on Klebsiella pneumoniae and in the assay on Escherichia coli was 117 µM (≈ 63.9 µg/mL) in each case. For the same compound, the MIC result in the assay with Staphylococcus aureus, in the assay with Streptococcus pyogenes, in the assay with Pseudomonas aeruginosa, in the assay with Salmonella enteritidis, with Proteus vulgaris and in the assay with Bacillus subtilis was “inactive” each time. In addition, the MIC entry in the assay with Enterococcus faecalis and in the assay on Xanthomonas campestris was “inactive” throughout.
Turning to `CCCCCNC(=O)c1ccc(-n2nc(C(=O)NCCCCC)c(C(=O)c3ccccc3)c2-c2ccccc2)cc1`, the MIC against Klebsiella pneumoniae is 116 µM (≈ 63.9 µg/mL); against Escherichia coli, 116 µM (≈ 63.9 µg/mL); against Bacillus subtilis it was 232 µM (≈ 128 µg/mL). The MIC entry in the assay with Staphylococcus aureus, in the assay with Streptococcus pyogenes, in the assay with Pseudomonas aeruginosa, in the assay with Salmonella enteritidis, in the assay on Proteus vulgaris and with Enterococcus faecalis was “inactive” throughout. Further, the MIC result in the assay on Xanthomonas campestris was “inactive”.
Consider `Cn1nc(-c2ccccc2)c2c(-c3ccccc3)n(-c3ccc(C(=O)O)cc3)nc2c1=O`, for which the MIC worked out at 152 µM (≈ 64.2 µg/mL) in the assay with Klebsiella pneumoniae; 152 µM (≈ 64.2 µg/mL) against Escherichia coli; 303 µM (≈ 128 µg/mL) against Pseudomonas aeruginosa; 303 µM (≈ 128 µg/mL) against Bacillus subtilis; 303 µM (≈ 128 µg/mL) against Xanthomonas campestris. In addition, the MIC entry in the assay on Staphylococcus aureus, with Streptococcus pyogenes, in the assay on Salmonella enteritidis, with Proteus vulgaris and with Enterococcus faecalis was “inactive” throughout.
As to `CCCCOC(=O)c1ccc(-n2nc(C(=O)OCCCC)c(C(=O)c3ccccc3)c2-c2ccccc2)cc1`, the MIC against Klebsiella pneumoniae stood at 122 µM (≈ 64 µg/mL); against Escherichia coli, 122 µM (≈ 64 µg/mL); in the assay on Bacillus subtilis, 122 µM (≈ 64 µg/mL); with Xanthomonas campestris, 244 µM (≈ 128 µg/mL). For the same compound, the MIC entry in the assay with Staphylococcus aureus, with Streptococcus pyogenes, with Pseudomonas aeruginosa, with Salmonella enteritidis, in the assay on Proteus vulgaris and in the assay on Enterococcus faecalis was “inactive” each time.
Consider `CCN(CC)C(=O)c1ccc(-n2nc(C(=O)N(CC)CC)c(C(=O)c3ccccc3)c2-c2ccccc2)cc1`, for which the MIC against Klebsiella pneumoniae stood at 123 µM (≈ 64.3 µg/mL); in the assay with Escherichia coli it was 123 µM (≈ 64.3 µg/mL); against Bacillus subtilis, 245 µM (≈ 128 µg/mL); against Xanthomonas campestris it was 245 µM (≈ 128 µg/mL). The MIC result in the assay with Staphylococcus aureus, in the assay with Streptococcus pyogenes, with Pseudomonas aeruginosa, with Salmonella enteritidis, with Proteus vulgaris and in the assay with Enterococcus faecalis was “inactive” each time.
As to `CCOC(=O)c1ccc(-n2nc(C(=O)OCC)c(C(=O)c3ccccc3)c2-c2ccccc2)cc1`, the MIC against Klebsiella pneumoniae, in the assay with Escherichia coli and against Bacillus subtilis was 137 µM (≈ 64.2 µg/mL) in each case. Moreover, the MIC result in the assay with Staphylococcus aureus, in the assay on Streptococcus pyogenes, in the assay on Pseudomonas aeruginosa, with Salmonella enteritidis, with Proteus vulgaris and in the assay on Enterococcus faecalis was “inactive” each time. The MIC entry in the assay with Xanthomonas campestris was “inactive”.
Take `COC(=O)c1ccc(-n2nc(C(=O)OC)c(C(=O)c3ccccc3)c2-c2ccccc2)cc1`: the results for the MIC against Klebsiella pneumoniae, in the assay with Escherichia coli and against Bacillus subtilis were 145 µM (≈ 63.9 µg/mL), 145 µM (≈ 63.9 µg/mL) and 290 µM (≈ 128 µg/mL), respectively. In addition, the MIC entry in the assay with Staphylococcus aureus, with Streptococcus pyogenes, in the assay on Pseudomonas aeruginosa, with Salmonella enteritidis, with Proteus vulgaris and in the assay with Enterococcus faecalis was “inactive” in each case. The MIC result with Xanthomonas campestris is “inactive”.
As for `O=C(O)c1ccc(-n2nc3c(=O)[nH]nc(-c4ccccc4)c3c2-c2ccccc2)cc1`, the MIC in the assay on Klebsiella pneumoniae worked out at 157 µM (≈ 64.1 µg/mL); against Escherichia coli, 157 µM (≈ 64.1 µg/mL); against Pseudomonas aeruginosa, 157 µM (≈ 64.1 µg/mL); against Proteus vulgaris it was 157 µM (≈ 64.1 µg/mL); with Bacillus subtilis it was 313 µM (≈ 128 µg/mL); against Xanthomonas campestris, 313 µM (≈ 128 µg/mL). Moreover, the MIC entry in the assay on Staphylococcus aureus, with Streptococcus pyogenes, in the assay with Salmonella enteritidis and in the assay with Enterococcus faecalis was “inactive” in each case.
In the case of `CC(C)OC(=O)c1ccc(-n2nc(C(=O)OC(C)C)c(C(=O)c3ccccc3)c2-c2ccccc2)cc1`, the MIC came to 129 µM (≈ 64.1 µg/mL) against Klebsiella pneumoniae, 129 µM (≈ 64.1 µg/mL) in the assay on Escherichia coli, 129 µM (≈ 64.1 µg/mL) against Bacillus subtilis and 258 µM (≈ 128 µg/mL) against Xanthomonas campestris. In addition, the MIC entry in the assay on Staphylococcus aureus, in the assay with Streptococcus pyogenes, in the assay on Pseudomonas aeruginosa, in the assay with Salmonella enteritidis, in the assay with Proteus vulgaris and with Enterococcus faecalis was “inactive” each time.
Regarding `O=C(NCc1ccccc1)NC(=O)c1ccc(-n2nc(C(=O)NC(=O)NCc3ccccc3)c(C(=O)c3ccccc3)c2-c2ccccc2)cc1`, the MIC is 95 µM (≈ 64.3 µg/mL) against Klebsiella pneumoniae, 95 µM (≈ 64.3 µg/mL) against Escherichia coli and 189 µM (≈ 128 µg/mL) with Bacillus subtilis. Moreover, the MIC result with Staphylococcus aureus, with Streptococcus pyogenes, with Pseudomonas aeruginosa, in the assay with Salmonella enteritidis, in the assay on Proteus vulgaris and with Enterococcus faecalis was “inactive” each time. Also, the MIC entry in the assay on Xanthomonas campestris was “inactive”.
